Marks after values point to notes of the source that are not given here.
Legend:
Assay type in all cases: biochemical
Recombinant human KLK5 = target: T1, Recombinant human KLK5 (Homo sapiens, UniProt Q9Y337); test: Recombinant KLK5 chromogenic IC50 assay; settings: Table 2; assay protocol of Example 3; read-out: Recombinant KLK5 enzyme (IC50)
T1 construct: purchased SpeedBio (Gaithersburg, MD) / SpeedBioSystems; host or cells: HEK293
T1 sequence (Q9Y337 23-293): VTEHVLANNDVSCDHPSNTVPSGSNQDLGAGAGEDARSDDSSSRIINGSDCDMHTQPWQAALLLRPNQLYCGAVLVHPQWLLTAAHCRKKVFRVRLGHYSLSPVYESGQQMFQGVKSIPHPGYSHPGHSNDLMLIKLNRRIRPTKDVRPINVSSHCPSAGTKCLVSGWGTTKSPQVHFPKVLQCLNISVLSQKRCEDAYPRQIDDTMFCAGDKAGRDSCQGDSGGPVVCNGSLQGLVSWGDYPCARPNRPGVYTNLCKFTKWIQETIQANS
From the text: (§1) Human Kallikrein Proteins: Recombinant human KLK5 expressed in HEK293 was obtained from SpeedBio (Gaithersburg, MD). Recombinant proenzyme KLK-7 and recombinant proenzyme KLK-14 both expressed in mouse myeloma cells were from R&D Biosystems (Minneapolis, MN). Plasmin and thrombin were from Haematologic Technologies (Essex Junction, VT). Trypsin and Chymotrypsin were bought from Worthington Biochemical Corporation (Lakewood, NJ) and plasma kallikrein was from Prospec (East Brunswick, NJ). Neutrophil Elastase was obtained from Innovative Research (Peary Court, MI). Bovine recombinant enterokinase expressed in E. coli was bought from Sigma (St. Louis, MI). Matriptase expressed in E. coli was obtained from Enzo Life Sciences (Farmingdale, NY). The control inhibitors Nafamostat mesylate was from Sigma (St. Louis, MI) and (2-(2-fluorophenyl)-5,6,7,8-tetrahydro-4H-benzo[4,5]thieno[2,3-d][1,3]oxazin-4-one was from Interbioscreen (Moskow, Russia).
(§2) Substrates: S-2288 (D-Ile-Pro-Arg-pNA), CS-PSA (MeO-Suc-Arg-Pro-Tyr-pNA), S-2266 (H-D-Val-Leu-Arg-pNA) and S-2288 (H-D-Ile-Pro-Arg-pNA) were bought from Diapharma (West Chester, OH). MeOSuccAla-Ala-Pro-Val-pNA was purchased from Sigma (St Louis, MI). The substrates were dissolved in water at 10 mM and were frozen in aliquots at −20° C.
(§3) Assays: All assays were performed in 384 well polystyrene plates coated overnight with 0.1% Tween 20 at 4° C. The plates were then washed twice with 100 μL water and dried. For the determination of IC50 values, the inhibitors were diluted in serial dilutions of 1:3 intervals into pure DMSO at 50 fold of the intended final concentrations in the assays. Usually eight inhibitor dilutions and one DMSO control were prepared. The substrates were diluted into water at 2.2-fold the final concentration in the assay mixture. The wells of the plate were filled with 50 μL of the enzyme diluted in 2× assay buffer (100 mM Tris, 200 mM NaCl, 0.2% PEG, 0.01% Tween, 2 mM EDTA, pH 8.0) at twofold the intended concentration. Then 5 μL DMSO, 2.2 μL inhibitor and 45 μL substrate were added to start the reaction. The assays were monitored at 37° C. in a multi well plate reader at a wavelength of 405 nm (Molecular Devices, San Jose, CA) for 1 h. The tool inhibitor, nafamostat, was used as a control for trypsin, thrombin, KLK-5 and KLK-14 at 10 μM maximal concentration and (2-(2-fluorophenyl)-5,6,7,8-tetrahydro-4H-benzo[4,5]thieno[2,3-d][1,3]oxazin-4-one for KLK-7 at 5 μM.
(§4) The table summarizes assay conditions for the individual enzymes:
(§5) Data analysis: The progress curves of substrate hydrolysis were analyzed by linear regression of the final 20 min of the reaction. Fit of the dose response of the resulting rates to the following equation yielded the IC50:
(§6) [formula] with 1) c: the background rate at the highest inhibitor concentration; 2) d: the rate of the control reaction; 3) IC50: the IC50 of the inhibitor; 4) x: the inhibitor concentration; and 5) b: the slope.
(§7) Proteases: KLK5 (SpeedBioSystems); KLK7 (R&Dsystems) was activated with enterokinase (2 hours, 37° C.) prior to assay; Trypsin (Sigma Aldrich); Chymotrypsin (Sigma Aldrich); Factor Xa (Haematologic Technologies); Plasmin (Haematologic Technologies); KLK14 (R&Dsystems) was activated with enterokinase (1 hour, 37° C.) prior to assay; Thrombin (Haematologic Technologies); Neutrophil Elastase (Athens Research&Technology); and KLK1 (Prospec).

KLK7 = target: T2, KLK7 (Homo sapiens, UniProt P49862); test: Recombinant KLK7 chromogenic IC50 assay; settings: Table 2; assay protocol of Example 3; read-out: Recombinant KLK7 enzyme (IC50)
T2 construct: purchased R&D Biosystems (Minneapolis, MN) / R&Dsystems; host or cells: mouse myeloma cells
From the text: as §1, §2
Activation of KLK-7 and KLK-14: 150 μL 8 μM solution of the proenzymes of KLK-7 or KLK-14 in 50 mM Tris, 10 mM CaCl2, 150 mM NaCl, 0.05% (w/v) Brij-35, pH 7.5 were mixed with 150 μL 10 μg/mL bovine enterokinase in the same buffer and incubated for 2 h for KLK-7 and 1 h for KLK-14 at 37° C. After the incubation period, activation was stopped by addition of 6 μL 0.5 M EDTA pH 8.0.
as §3, §4, §5, §6, §7

[1] = test system: KLK proteases in human skin extract; test: Inhibition of protease activity in human skin extract; settings: human skin extract; for Rate in Skin Assay: compound concentration not given
Procedure: Materials: The peptide substrates PS-01 (YRSR-pNA Tyr-Arg-Ser-Arg-pNA) (SEQ ID NO. 1) and PS-02 (Lys-His-Leu-Tyr-pNA) (SEQ ID NO. 2) were synthesized by Zamboni Chemical Solutions (Montreal, Canada). Human epidermis samples were obtained from Biopredic (Saint-Grégoire, France). The BCA protein assay kit was bought from VWR.
Preparation of skin extract: The epidermis was frozen and lyophilized. A sample of 15 mg lyophilized epidermis was immersed in 1 mL high salt buffer (100 mM Tris, 5 mM EDTA, 2M KCl, pH 8), frozen twice in dry ice and thawed. After incubation overnight at 4° C. and addition of six 2.4 mm metal beads, the sample was homogenized in a Bertin Precellys Homogenizer (Atkinson, NH) three times at […] for 20 seconds each and cooled in between for 30 seconds. After centrifugation at maximal speed in a desktop minifuge, the protein concentration of the supernatant was determined by BCA assay (˜0.5 mg/mL).
Inhibition of protease activity in skin extract: Stock solutions of 200, 66, 22 and 0 μM of the tested compound in DMSO were prepared. Substrate stocks of 1100 μM PS-01 and PS-02 were prepared by dissolving in water. The wells of a 384 well plate was filled with 50 μL 2× assay buffer (see above) and then 45 μL substrate stock and 5 μL of the test compound were added. The reaction was started by addition of 10 μL skin extract for the substrate PS-02 and 5 μL for the substrate PS-01. The substrate hydrolysis was monitored in multi-well plate reader at 405 nm.
Chromogenic substrate cleavage progressions of Compounds 1.001, 1.002, and 14 were tested according to human stratum corneum extract assay of Example 4 using KLK5 and KLK7 preferred chromogenic peptide substrates (PS-01 and PS-02). The proteolytic cleavage of KLK5 selective substrate in skin extract by Compounds 1.001, 1.002, and 14 are compared and shown in FIGS. 4A-4D. NSK refers to extract from skin freshly prepared; and OSK refers to extract from skin post freeze thaw.

T2 sequence (P49862 30-253): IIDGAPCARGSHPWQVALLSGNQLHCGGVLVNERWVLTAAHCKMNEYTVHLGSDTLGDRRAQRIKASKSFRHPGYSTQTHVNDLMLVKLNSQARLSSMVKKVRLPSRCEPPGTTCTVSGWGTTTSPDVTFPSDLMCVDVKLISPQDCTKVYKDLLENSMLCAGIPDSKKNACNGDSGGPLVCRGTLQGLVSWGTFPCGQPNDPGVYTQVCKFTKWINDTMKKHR

Row | SMILES | IC50 (Recombinant human KLK5) [nM] | IC50 (KLK7) [nM] | Initial rate of proteolytic activity ([1]; Conc 1 μM) | Initial rate of substrate hydrolysis ([1]; Conc 1 μM) | Initial rate of proteolytic activity ([1]; Conc 3.3 μM) | Initial rate of substrate hydrolysis ([1]; Conc 3.3 μM) | Rate in Skin Assay [1]
1 | CS(=O)(=O)c1ccc(CO)cc1-c1nc2cc3c(cc2c(=O)o1)OCCO3 [Compound 1.002, 2-(5-(Hydroxymethyl)-2-(methylsulfonyl)phenyl)-7,8-dihydro-4H-[1,4]dioxino[2′,3′:4,5]benzo[1,2-d][1,3]oxazin-4-one] | 1570 | 220 | 0.1* Absorbance405/min | 0.06* Absorbance405/min | 0.09* Absorbance405/min | 0.05* Absorbance405/min | 0.009* Absorbance405/min
2 | CS(=O)(=O)c1ccccc1-c1nc2cc3c(cc2c(=O)o1)OCCO3 [Compound 14, reference compound] | 240 | 130 | 0.13* Absorbance405/min | 0.1* Absorbance405/min | 0.11* Absorbance405/min | 0.08* Absorbance405/min | 0.14* Absorbance405/min

From patent publication US12281123B2, “Benzoxazinone compounds as KLK5/7 dual inhibitors” (MOLECULAR SKIN THERAPEUTICS, INC., priority 2019, dated 2025)
